According to patent US9790169B2, “IDO inhibitors” (BRISTOL-MYERS SQUIBB COMPANY, priority 2015, dated 2017):
Counter-ions that a name gives are not always drawn.

Target: human IDO1 (Homo sapiens, UniProt P14902)
Experiment: Assessment of human IDO-1 inhibitory activity in HEK cells (human IDO1/HEK293 cells, kynurenine read-out with Ehrlich reagent, absorbance 490 nm)
Type: cell-based
Parameters: expressed in transfected cells
Details: HEK Human IDO-1 cellular assay
Procedure, shortened: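 Kynurenine output from stably IDO1-transfected HEK293 cells (10,000/well, phenol red-free RPMI, 10% FBS) after 20 h compound exposure at 37 °C. The reaction was stopped with 0.2% TCA and heated 30 min at 50 °C, then the supernatant was mixed with Ehrlich reagent and read at 490 nm. IC50 was set against DMSO and a 500 nM reference standard as 0 and 100% inhibition.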

Sequence of human IDO1 (P14902 whole entry): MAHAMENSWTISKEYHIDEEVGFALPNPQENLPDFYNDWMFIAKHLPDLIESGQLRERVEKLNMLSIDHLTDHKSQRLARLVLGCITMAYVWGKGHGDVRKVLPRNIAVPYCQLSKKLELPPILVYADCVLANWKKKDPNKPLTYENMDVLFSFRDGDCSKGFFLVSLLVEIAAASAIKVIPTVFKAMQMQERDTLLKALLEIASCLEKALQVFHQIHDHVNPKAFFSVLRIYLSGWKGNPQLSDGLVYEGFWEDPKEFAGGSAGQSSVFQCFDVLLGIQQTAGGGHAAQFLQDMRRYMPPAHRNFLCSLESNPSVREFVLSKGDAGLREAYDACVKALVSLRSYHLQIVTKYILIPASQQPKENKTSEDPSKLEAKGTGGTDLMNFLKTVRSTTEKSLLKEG

| SMILES | IC50 [nM] |
| --- | --- |
| COCC(CC(=O)O)c1ccc(N(CC(C)C)C2CCCCC2)c(NC(=O)Nc2cc(C)on2)c1 (single isomer, unassigned) [987-1] | < 50 |
| CCC(CC(=O)O)c1ccc(N(CC)C2CCCOC2)c(NC(=O)Nc2ccc(C)cc2)c1 (single isomer, unassigned) [Example 73 D4, 3-(4-(Ethyl(tetrahydro-2H-pyran-3-yl)amino)-3-(3-(p-tolyl)ureido)phenyl)pentanoic acid] | < 5 |
| CC[C@@H](CC(=O)O)c1ccc(N(CC)C2CCOCC2)c(NC(=O)Nc2ccc(Cl)cc2)c1 (single isomer, unassigned) [Example 494] | > 50 |
| CC[C@@H](CC(=O)O)c1ccc(N(CC)C2CCOCC2)c(Nc2ccc(OC)nc2)c1 (single isomer, unassigned) [Example 478] | < 5 |
| CCC(CC(=O)O)c1ccc(N(CC(C)C)C2CCCCC2)c(Nc2ccc3nc(C)sc3c2)c1 (single isomer, unassigned) [Example 305, 3-(4-(cyclohexyl(isobutyl)amino)-3-((2-methylbenzo [d]thiazol-6-yl)amino)phenyl)pentanoic acid] | < 5 |
| CC[C@@H](CC(=O)O)c1ccc(N(CC)C2CCOCC2)c(NC(=O)Nc2ccc(OC)cc2F)c1 (single isomer, unassigned) [Example 493] | > 50 |
| CCC(CC(=O)O)c1cc(F)c(N(CC(C)C)CC(C)C)c(Nc2ccc3c(c2)OC(F)(F)O3)c1 (single isomer, unassigned) [Example 101, 3-(3-((2,2-difluorobenzo [d][1,3]dioxol-5-yl)amino)-4-(diisobutylamino)-5-fluorophenyl)pentanoic acid] | < 5 |
| CCN(c1ccc([C@H](COC)CC(=O)O)cc1NC(=O)Nc1cnc(C)nc1)C1CCOCC1 (single isomer, unassigned) [Example 438] | > 50 |
| COCC(CC(=O)O)c1ccc(N(CC(C)C)CC(C)C)c(NC(=O)Nc2cncnc2)c1 (single isomer, unassigned) [997-2] | < 50 |
| COCC(CC(=O)O)c1ccc(N(CC(C)C)CC(C)C)c(NC(=O)Nc2ccc(Cl)cc2F)c1 (single isomer, unassigned) [995-1] | < 5 |
| CCC(CC(=O)O)c1ccc(N(CC)C2CCCOC2)c(NC(=O)Nc2ccc(C)cc2)c1 (single isomer, unassigned) [Example 73 D3, 3-(4-(Ethyl(tetrahydro-2H-pyran-3-yl)amino)-3-(3-(p-tolyl)ureido)phenyl)pentanoic acid] | < 50 |
| CCC(CC(=O)O)c1cc(F)c(N(CC(C)C)CC(C)C)c(Nc2ccc(F)cc2)c1 (single isomer, unassigned) [Example 100, 3-(4-(diisobutylamino)-3-fluoro-5-((4-fluorophenyl)amino)phenyl)pentanoic acid] | < 5 |
| CC[C@@H](CC(=O)O)c1ccc(N(CC(C)C)CC(C)C)c(Nc2ccc3nc(C)sc3c2)c1 (single isomer, unassigned) [Example 9] | > 50 |
| CC[C@@H](CC(=O)O)c1ccc(N(CC)C2CCOCC2)c(Nc2ccc3c(c2)OCCO3)c1 (single isomer, unassigned) [Example 486] | > 50 |
| CC[C@@H](CC(=O)O)c1ccc(N(CC)C2CCOCC2)c(Nc2cn3ccnc3cn2)c1 (single isomer, unassigned) [Example 483] | > 50 |
| CC[C@H](CC(=O)O)c1ccc(N(CC(C)(C)O)C2CCOCC2)c(Nc2ccc(Cl)cc2)c1 (single isomer, unassigned) [Example 203] | < 5 |
| CCC(CC(=O)O)c1cc(F)c(N(CC(C)C)CC(C)C)c(Nc2ccnc(N3CCOCC3)n2)c1 (single isomer, unassigned) [Example 105, 3-(4-(diisobutylamino)-3-fluoro-5-((2-morpholinopyrimidin-4-yl)amino)phenyl) pentanoic acid] | > 50 |

Continued, values first:

| IC50 [nM] | SMILES |
| --- | --- |
| < 5 | CC[C@H](CC(=O)O)c1ccc(N(CC)C2CCOCC2)c(NC(=O)Nc2ccc(Cl)cc2F)c1 (single isomer, unassigned) [Example 526] |
| < 5 | CCC(CC(=O)O)c1cc(NC(=O)Nc2cc(C)no2)c(N(CC(C)C)C2CCCCC2)cc1F (single isomer, unassigned) [Example 1114, 3-(4-(Cyclohexyl(isobutyl)amino)-2-fluoro-5-(3-(3-methylisoxazol-5-yl)ureido)phenyl)pentanoic acid] |
| > 50 | CCC(CC(=O)O)c1cc(F)c(N(CC(C)C)CC(C)C)c(NC(=O)Nc2cc(C(C)(C)C)on2)c1 (racemic) [Example 971, (+/−)-3-(3-(3-(5-(tert-Butyl)isoxazol-3-yl)ureido)-4-(diisobutylamino)-5-fluorophenyl)pentanoic acid, TFA] |
| > 50 | CCC(CC(=O)O)c1ccc(N2CCC[C@H]2C(C)(C)O)c(NC(=O)Nc2ccc(F)cc2)c1 (single isomer, unassigned) [Example 813] |
| < 50 | CCC(CC(=O)O)c1ccc(N2CCOC[C@H]2C(C)C)c(NC(=O)Nc2ccc(Cl)cc2F)c1 (single isomer, unassigned) [Example 896] |
| > 50 | COCC(CC(=O)O)c1ccc(N(CC(C)C)C2CCOCC2)c(NC(=O)Nc2cc(C)on2)c1 (single isomer, unassigned) [Example 1213, 3-(4-(Isobutyl(tetrahydro-2H-pyran-4-yl)amino)-3-(3-(5-methylisoxazol-3-yl)ureido)phenyl)-4-methoxybutanoic acid] |
| < 50 | COCC(CC(=O)O)c1ccc(N(CC(C)C)C2CCCCC2)c(NC(=O)Cc2ccc(C)cc2)c1 (single isomer, unassigned) [Example 1237, 3-(4-(Cyclohexyl(isobutyl)amino)-3-(2-(p-tolyl)acetamido)phenyl)-4-methoxybutanoic acid] |
| > 50 | CC(CC(=O)O)c1ccc(N2CCC[C@H]2C(C)(C)O)c(Nc2ccc(C#N)cc2)c1 (single isomer, unassigned) [Example 797] |
| < 50 | COCC(CC(=O)O)c1cc(F)c(N(CC(C)C)CC(C)C)c(NC(=O)Nc2cc(C)on2)c1 (single isomer, unassigned) [Example 1184, 3-(4-(Diisobutylamino)-3-fluoro-5-(3-(5-methylisoxazol-3-yl)ureido)phenyl)-4-methoxybutanoic acid] |
| < 5 | CCN(c1ccc(C(CC(=O)O)c2ccccc2)cc1Nc1ccc(C#N)cc1)C1CCOCC1 (single isomer, unassigned) [Example 581, 3-(3-((4-cyanophenyl)amino)-4-(ethyl(tetrahydro-2H-pyran-4-yl)amino)phenyl)-3-phenylpropanoic acid] |
| > 50 | CCCN(c1ccc(C(CC)CC(=O)O)cc1NC(=O)Nc1cnc(C)nc1)C1CCOCC1 (racemic) [Example 610, 3-(3-(3-(2-methylpyrimidin-5-yl)ureido)-4-(propyl(tetrahydro-2H-pyran-4-yl)amino)phenyl)pentanoic acid] |
| < 5 | Cc1ccc(NC(=O)Nc2cc(C(CC(=O)O)C3CC3)ccc2N(CC(C)C)C2CCOCC2)cc1 (racemic) [Example 1202, (+/−)-3-Cyclopropyl-3-(4-(isobutyl(tetrahydro-2H-pyran-4-yl)amino)-3-(3-(p-tolyl)ureido)phenyl)propanoic acid] |
| > 50 | CC[C@H](CC(=O)O)c1ccc(N(CC)C2CCOCC2)c(Nc2ccc3nncn3c2)c1 (single isomer, unassigned) [Example 512] |
| > 50 | CC[C@@H](CC(=O)O)c1ccc(N2CCC[C@H]2C(C)(C)F)c(NC(=O)Nc2ccc(C)cc2)c1 (single isomer, unassigned) [Example 785] |
| < 5 | CCC(CC(=O)O)c1ccc(N(CC(C)C)C2CCCCC2)c(Nc2ccc(Cl)c(OC(F)F)c2)c1 (single isomer, unassigned) [Example 642] |
| > 50 | CC(CC(=O)O)c1ccc(N2C[C@@H](C)O[C@@H](C)C2)c(Nc2ccc(F)cc2)c1 (single isomer, unassigned) [Example 738] |
| > 50 | COCC(CC(=O)O)c1ccc(N(CC2CC2)C2CCOCC2)c(Nc2ccc(Cl)c(OCC(F)(F)F)c2)c1 (single isomer, unassigned) [Example 682, 3-(3-((4-chloro-3-(2,2,2-trifluoroethoxy)phenyl)amino)-4-((cyclopropylmethyl) (tetrahydro-2H-pyran-4-yl)amino)phenyl)-4-methoxybutanoic acid] |
| < 50 | CCOc1ccc(NC(=O)Nc2cc(C(COC)CC(=O)O)cc(F)c2N(CC(C)C)CC(C)C)c(F)c1 (single isomer, unassigned) [Example 1178, 3-(4-(Diisobutylamino)-3-(3-(4-ethoxy-2-fluorophenyl)ureido)-5-fluorophenyl)-4-methoxybutanoic acid] |
| < 5 | CCC(CC(=O)O)c1ccc(N2CCC[C@H]2C(C)(C)O)c(Nc2ccc(Cl)cc2)c1 (single isomer, unassigned) [Example 820] |
| < 50 | CC(C)CN(c1ccc(C(C)CC(=O)O)cc1Nc1nc2ccccc2o1)C1CCOCC1 (single isomer, unassigned) [Example 968, 3-(3-(Benzo[d]oxazol-2-ylamino)-4-(isobutyl(tetrahydro-2H-pyran-4-yl)amino)phenyl)butanoic acid] |
| < 5 | CCCN(CC1CC1)c1ccc(C(CC)CC(=O)O)cc1Nc1ccc(Cl)cc1 (single isomer, unassigned) [Example 656 E1, 3-(3-((4-Chlorophenyl)amino)-4-((cyclopropylmethyl)(propyl)amino)phenyl)pentanoic acid] |
| < 5 | CCCN(CC1CC1)c1ccc(C(CC)CC(=O)O)cc1Nc1ccc2c(c1)OC(F)(F)O2 (single isomer, unassigned) [Example 662, 3-(4-((cyclopropylmethyl)(propyl)amino)-3-((2,2-difluorobenzo[d] [1,3]dioxol-5-yl)amino)phenyl) pentanoic acid] |
| > 50 | CC(C)CN(CC(C)C)c1ccc(C(CC(=O)O)c2ccccc2)cc1NC(=O)Nc1ccc(OC(F)(F)F)cc1 (racemic) [Example 1009, (+/−)3-(4-(Diisobutylamino)-3-(3-(4-(trifluoromethoxy)phenyl)ureido)phenyl)-3-phenylpropanoic acid] |
